“And” between values parts separate entries of the source, which are not always exact repeats. Identical values can stand only once. Inconclusive results and toxic doses are left out.

Among the data in PubChem BioAssay AID330 (DTP/NCI, 2004) are T/C values, retold here.

The experiment concerns P388 leukemia ip, CD2F1 mice, survival T/C. Description: NCI In Vivo Anticancer Drug Screen. Data for tumor model P388 Leukemia (intraperitoneal) in CD2F1 (CDF1) mice. The following applies: endpoint: median survival time, higher = longer survival. A digest of the protocol:
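Mice carrying the transplanted tumor received test compound or vehicle. Survival was recorded in each group, and the value is the treated-group measurement divided by that of the vehicle-treated control group.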

Setting [1] is: dose: 60.0 mg/kg/injection, schedule: Q01DX005 (ip), vehicle: saline.
Setting [2] is: dose: 120.0 mg/kg/injection, schedule: Q01DX005 (ip), vehicle: saline.
[3] abbreviates: dose: 100.0 mg/kg/injection, schedule: Q01DX009 (ip), vehicle: Klucel (hydroxypropylcellulose) (HPC).
Where [4] appears, read: dose: 50.0 mg/kg/injection, schedule: Q01DX009 (ip), vehicle: saline with Tween-80.
The mark [5] stands for this setting: dose: 100.0 mg/kg/injection, schedule: Q01DX009 (ip), vehicle: saline with Tween-80.
Setting [6] is: dose: 50.0 mg/kg/injection, schedule: Q01DX005 (ip), vehicle: Klucel (hydroxypropylcellulose) (HPC).
Where [7] appears, read: dose: 100.0 mg/kg/injection, schedule: Q01DX005 (ip), vehicle: Klucel (hydroxypropylcellulose) (HPC).
The mark [8] stands for this setting: dose: 200.0 mg/kg/injection, schedule: Q01DX005 (ip), vehicle: Klucel (hydroxypropylcellulose) (HPC).
The mark [9] stands for this setting: dose: 100.0 mg/kg/injection, schedule: Q01DX001 (ip), vehicle: saline with Tween-80.
Setting [10] is: dose: 200.0 mg/kg/injection, schedule: Q01DX001 (ip), vehicle: saline with Tween-80.
The mark [11] stands for this setting: dose: 400.0 mg/kg/injection, schedule: Q01DX001 (ip), vehicle: saline with Tween-80.
Setting [12] is: dose: 12.5 mg/kg/injection, schedule: Q01DX009 (ip), vehicle: Klucel (hydroxypropylcellulose) (HPC).
Where [13] appears, read: dose: 25.0 mg/kg/injection, schedule: Q01DX009 (ip), vehicle: Klucel (hydroxypropylcellulose) (HPC).

Take `c1ccc2c(c1)OCCN1CCNC21` (stereo not drawn): the T/C by setting is: (dose: 100.0 mg/kg/injection, schedule: Q04DX003 (ip), vehicle: saline) 100 % of control; (dose: 200.0 mg/kg/injection, schedule: Q04DX003 (ip), vehicle: saline) 102 % of control; (dose: 400.0 mg/kg/injection, schedule: Q04DX003 (ip), vehicle: saline) 101 % of control.
As to `CC(CN(C)C)C(/C=C/c1ccc(Cl)cc1)=N\NC(=O)c1ccccc1` (stereo not drawn), the T/C reads like this: (dose: 15.0 mg/kg/injection, schedule: Q01DX005 (ip), vehicle: saline) 101 % of control; (dose: 30.0 mg/kg/injection, schedule: Q01DX005 (ip), vehicle: saline) 100 % of control; under setting [1], 104 % of control and 121 % of control; under setting [2], 114 % of control.
`Cn1c(C(C)(C)OC(=O)Oc2ccccc2)cnc1[N+](=O)[O-]`: the T/C under setting [3] is 96 % of control and the T/C (dose: 200.0 mg/kg/injection, schedule: Q01DX009 (ip), vehicle: Klucel (hydroxypropylcellulose) (HPC)) was 100 % of control.
For the compound `C[Si](C)(C)/N=C/O[Si](C)(C)C`, the T/C by setting is: under setting [1], 100 % of control; under setting [2], 101 % of control; (dose: 240.0 mg/kg/injection, schedule: Q01DX005 (ip), vehicle: saline) 108 % of control.
With `O=C(NC1COB(c2ccc(Br)cc2)OC1c1ccc([N+](=O)[O-])cc1)C(Cl)Cl` (stereo not drawn), the T/C runs as follows: (dose: 60.0 mg/kg/injection, schedule: Q01DX005 (ip), vehicle: Klucel (hydroxypropylcellulose) (HPC)) 102 % of control; (dose: 120.0 mg/kg/injection, schedule: Q01DX005 (ip), vehicle: Klucel (hydroxypropylcellulose) (HPC)) 102 % of control; (dose: 240.0 mg/kg/injection, schedule: Q01DX005 (ip), vehicle: Klucel (hydroxypropylcellulose) (HPC)) 103 % of control.
`CCC(=O)Nc1cc(Cl)cc2[nH]c(C)nc12`: the T/C by setting is: under setting [4], 110 % of control; under setting [5], 99 % of control; (dose: 200.0 mg/kg/injection, schedule: Q01DX009 (ip), vehicle: saline with Tween-80) 102 % of control.
As for `O=CC(=O)Cc1ccccc1`, the T/C is, setting by setting: (dose: 50.0 mg/kg/injection, schedule: Q01DX009 (ip), vehicle: saline) 99 % of control and 98 % of control; (dose: 100.0 mg/kg/injection, schedule: Q01DX009 (ip), vehicle: saline) 105 % of control and 98 % of control; (dose: 200.0 mg/kg/injection, schedule: Q01DX009 (ip), vehicle: saline) 100 % of control and 92 % of control; (dose: 400.0 mg/kg/injection, schedule: Q01DX009 (ip), vehicle: saline) 99 % of control and 100 % of control.
With `O=C1CCC2(CC1C1C=CCC1)OCCO2` (stereo not drawn), the T/C is, setting by setting: (dose: 100.0 mg/kg/injection, schedule: Q01DX009 (ip), vehicle: saline sonified) 100 % of control; (dose: 200.0 mg/kg/injection, schedule: Q01DX009 (ip), vehicle: saline sonified) 116 % of control; (dose: 400.0 mg/kg/injection, schedule: Q01DX009 (ip), vehicle: saline sonified) 100 % of control.
Regarding `Cc1cc(=O)c2cc3c(cc2[nH]1)OCO3`, the T/C by setting is: under setting [6], 106 % of control; under setting [7], 100 % of control; under setting [8], 100 % of control.
With `CCOC(=O)C1C(=O)CN(C(=O)OC)C1C(=O)OCC` (stereo not drawn), the T/C reads like this: (dose: 50.0 mg/kg/injection, schedule: Q01DX005 (ip), vehicle: saline with Tween-80) 99 % of control; (dose: 100.0 mg/kg/injection, schedule: Q01DX005 (ip), vehicle: saline with Tween-80) 95 % of control; (dose: 200.0 mg/kg/injection, schedule: Q01DX005 (ip), vehicle: saline with Tween-80) 95 % of control.
On to `O=C(/C(=C(/[O-])C(F)(F)F)[n+]1ccc2ccccc2c1)C(F)(F)F`, for which the T/C runs as follows: under setting [9], 100 % of control; under setting [10], 100 % of control and 112 % of control; under setting [11], 104 % of control and 97 % of control.
For the compound `C=C(OP(=O)(OC)OC)Sc1ccccc1C`, the T/C is, setting by setting: (dose: 0.04 mg/kg/injection, schedule: Q01DX005 (ip), vehicle: Klucel (hydroxypropylcellulose) (HPC)) 105 % of control; (dose: 0.09 mg/kg/injection, schedule: Q01DX005 (ip), vehicle: Klucel (hydroxypropylcellulose) (HPC)) 100 % of control; (dose: 0.18 mg/kg/injection, schedule: Q01DX005 (ip), vehicle: Klucel (hydroxypropylcellulose) (HPC)) 106 % of control; (dose: 0.37 mg/kg/injection, schedule: Q01DX005 (ip), vehicle: Klucel (hydroxypropylcellulose) (HPC)) 92 % of control; (dose: 0.75 mg/kg/injection, schedule: Q01DX005 (ip), vehicle: Klucel (hydroxypropylcellulose) (HPC)) 100 % of control; (dose: 1.5 mg/kg/injection, schedule: Q01DX005 (ip), vehicle: Klucel (hydroxypropylcellulose) (HPC)) 96 % of control. The T/C runs as follows: under setting [12], 100 % of control and 97 % of control; under setting [13], 102 % of control and 116 % of control; (dose: 50.0 mg/kg/injection, schedule: Q01DX009 (ip), vehicle: Klucel (hydroxypropylcellulose) (HPC)) 111 % of control and 121 % of control; under setting [3], 105 % of control and 92 % of control.
Turning to `CC(=O)OCC12C(OC(C)=O)CC(C)C3(CC(c4ccoc4)OC3=O)C1CCC(=O)C2(O)CCl` (stereo not drawn), the T/C was 106 % of control (dose: 0.75 mg/kg/injection, schedule: Q01DX005 (ip), vehicle: saline + alcohol); 103 % of control (dose: 1.5 mg/kg/injection, schedule: Q01DX005 (ip), vehicle: saline + alcohol); 106 % of control (dose: 3.0 mg/kg/injection, schedule: Q01DX005 (ip), vehicle: saline + alcohol); 108 % of control (dose: 6.0 mg/kg/injection, schedule: Q01DX005 (ip), vehicle: saline + alcohol); 106 % of control (dose: 12.0 mg/kg/injection, schedule: Q01DX005 (ip), vehicle: saline + alcohol); 92 % of control (dose: 12.5 mg/kg/injection, schedule: Q01DX005 (ip), vehicle: saline + Tween-80 + alcohol). The T/C reads like this: (dose: 25.0 mg/kg/injection, schedule: Q01DX005 (ip), vehicle: saline + Tween-80 + alcohol) 98 % of control; (dose: 100.0 mg/kg/injection, schedule: Q01DX005 (ip), vehicle: saline + Tween-80 + alcohol) 89 % of control; (dose: 150.0 mg/kg/injection, schedule: Q01DX005 (ip), vehicle: saline + Tween-80 + alcohol) 91 % of control.
Regarding `CNC(=S)N/N=C/c1nc2ccccc2c(=O)n1-c1ccc(Cl)cc1`, the T/C runs as follows: under setting [9], 102 % of control; under setting [10], 98 % of control; under setting [11], 92 % of control.
Regarding `CCCCP(=O)(CC(=O)O)c1ccccc1` (stereo not drawn), the T/C is 98 % of control (dose: 60.0 mg/kg/injection, schedule: Q01DX005 (ip), vehicle: saline with Tween-80); 99 % of control (dose: 120.0 mg/kg/injection, schedule: Q01DX005 (ip), vehicle: saline with Tween-80); 102 % of control (dose: 240.0 mg/kg/injection, schedule: Q01DX005 (ip), vehicle: saline with Tween-80).
As for `C[Si](C)(C)C1c2ccccc2-c2[nH]c3ccccc3c21` (stereo not drawn), the T/C runs as follows: (dose: 6.25 mg/kg/injection, schedule: Q01DX009 (ip), vehicle: Klucel (hydroxypropylcellulose) (HPC)) 101 % of control; under setting [12], 87 % of control; under setting [13], 102 % of control.
As for `Nc1ncnc2c1ncn2[C@@H](C=O)O[C@@H](C=O)CO`, the T/C was 155 % of control (dose: 3.13 mg/kg/injection, schedule: Q01DX009 (ip), vehicle: other); 150 % of control and 169 % of control (dose: 6.25 mg/kg/injection, schedule: Q01DX009 (ip), vehicle: other).
For `COC(=O)n1c(=O)oc2ccc(Br)cc21`, the T/C is 104 % of control under setting [6], 106 % of control under setting [7] and 102 % of control under setting [8].
For the compound `C/C=C/C(/C=C/C)(C(=O)OCCN(CC)CC)C(/C=C/C)(/C=C/C)C(=O)OCCN(CC)CC`, the T/C (dose: 50.0 mg/kg/injection, schedule: Q01DX005 (ip), vehicle: saline) is 101 % of control; the T/C (dose: 100.0 mg/kg/injection, schedule: Q01DX005 (ip), vehicle: saline) was 101 % of control; the T/C (dose: 200.0 mg/kg/injection, schedule: Q01DX005 (ip), vehicle: saline) is 97 % of control.
Take `CC1=C(C#N)C(=N)OC1(C)C1CC(=O)C=CC1=O` (stereo not drawn): the T/C (dose: 60.0 mg/kg/injection, schedule: Q01DX005 (ip), vehicle: suspension in saline) was 119 % of control.
Consider `CCCCCCCCOC(=O)CP(=O)(O)O`, for which the T/C reads like this: under setting [4], 100 % of control; under setting [5], 96 % of control.
